Results published in the Deep4Chem optical property database.
Where “and” joins values, the source holds several entries; their conditions need not be identical. Equal values may be shown once. Blank lines part the entries; values can stand above or below the compound they belong to.

Assay: photoluminescence quantum yield (fraction); solvent given as SMILES
[1] = in O=P(c1ccccc1)(c1ccccc1)c1ccccc1Oc1ccccc1P(=O)(c1ccccc1)c1ccccc1
[2] = in c1ccc2c(c1)c1ccccc1n2-c1ccc(-c2ccc(-n3c4ccccc4c4ccccc43)cc2)cc1

Compound: CCCCCCC(CCCCCC)N1C(=O)c2cccc3c(-c4ccc(OC)c5ccccc45)ccc(c23)C1=O
photoluminescence quantum yield (in CCCCCC): 0.33
photoluminescence quantum yield (in CCCCCCCCCCCCCC): 0.34
photoluminescence quantum yield (in CCCCCCCCCCCO): 0.23
photoluminescence quantum yield (in CCCCO): 0.088
photoluminescence quantum yield (in CN(C)C=O): 0.13
photoluminescence quantum yield (in Cc1ccccc1): 0.18
photoluminescence quantum yield (in ClC(Cl)Cl): 0.39

photoluminescence quantum yield (in CCO): 0.0846
photoluminescence quantum yield (in ClCCl): 0.111
photoluminescence quantum yield (in O): 0.01
Compound: O=Cc1ccc(-c2cccc(-c3nc4ccccc4s3)c2O)o1

photoluminescence quantum yield (in C1CCCCC1): 0.42
photoluminescence quantum yield (in CCOC(C)=O): 0.06
Compound: C#CCNC1=C2C=C(c3cc4n(c3)[B-](F)(F)[N+]3=CC=CC3=C4c3c(C)cc(C)cc3C)C(C)=[N+]2[B-](F)(F)n2c(C)ccc21

photoluminescence quantum yield (in C1CCCCC1): 0.023
photoluminescence quantum yield (in CC#N): 0.067
photoluminescence quantum yield (in CO): 0.026
photoluminescence quantum yield (in ClC(Cl)Cl): 0.057
Compound: CN(C)c1ccc2nc(-c3ccc(/C=N/Nc4ccccc4)cc3)sc2c1

photoluminescence quantum yield (in ClC(Cl)Cl): 0.01 and 0.03
Compound: C[Si](C)(C)C#CC(C#C[Si](C)(C)C)=Cc1ccc(C=C(C#C[Si](C)(C)C)C#C[Si](C)(C)C)cc1

Compound: Cc1cc(-c2ccc(-c3ccccc3)cc2)nc(-c2ccc(-n3c4ccccc4c4ccccc43)cc2)n1
photoluminescence quantum yield (in C1CCOC1): 0.22
photoluminescence quantum yield (in CN(C)C=O): 0.24
photoluminescence quantum yield (in Cc1ccccc1): 0.24
photoluminescence quantum yield (in ClC(Cl)Cl): 0.43

photoluminescence quantum yield (in CC#N): 0.054
Compound: COc1ccc(-c2pc3ccccc3s2)cc1 (stereo not drawn)

Compound: CC(C)(C)c1ccc2c(c1)c1cc(C(C)(C)C)ccc1n2-c1ccc(-c2nc(-c3ccc(P(=O)(c4ccccc4)c4ccccc4)cc3)nc(-c3ccc(P(=O)(c4ccccc4)c4ccccc4)cc3)n2)cc1
photoluminescence quantum yield [1]: 0.96

photoluminescence quantum yield (in CS(C)=O): 0.049
Compound: CCOC(=O)C1=C(N)n2c(=O)c3ccccc3c(=O)n2C1c1ccc([N+](=O)[O-])cc1 (stereo not drawn)

Compound: CCCCCCCCN1c2ccc(C#Cc3cc(C(F)(F)F)cc(C(F)(F)F)c3)cc2Sc2cc(C=O)ccc21
photoluminescence quantum yield (in C1CCOC1): 0.53
photoluminescence quantum yield (in CC#N): 0.53
photoluminescence quantum yield (in CCCCCC): 0.6
photoluminescence quantum yield (in CO): 0.11
photoluminescence quantum yield (in CS(C)=O): 0.77
photoluminescence quantum yield (in Cc1ccccc1): 0.67
photoluminescence quantum yield (in ClC(Cl)Cl): 0.63

photoluminescence quantum yield (in ClCCl): 0.09
Compound: COc1cccc(C2=C3C=C(/C=C/C(=O)OC(C)(C)C)C=[N+]3[B-](F)(F)n3cccc32)c1

photoluminescence quantum yield (in CCO): 0.57
photoluminescence quantum yield (in ClC(Cl)Cl): 0.25
Compound: COc1ccc2c(-c3nc(-c4ccccc4F)no3)cc(=O)oc2c1

photoluminescence quantum yield (in CC#N): 0.018
Compound: Fc1ccc(-[c+]2c3ccccc3sc3ccccc32)cc1

Compound: CN(C)/C=N\c1ccc2c3c(cccc13)C(=O)c1ccccc1-2
photoluminescence quantum yield (in C1CCOC1): 0.23
photoluminescence quantum yield (in CCCCCC): 0.31
photoluminescence quantum yield (in CCO): 0.26
photoluminescence quantum yield (in CCOC(C)=O): 0.28
photoluminescence quantum yield (in CN(C)C=O): 0.2
photoluminescence quantum yield (in CO): 0.27
photoluminescence quantum yield (in Cc1ccccc1): 0.66
photoluminescence quantum yield (in ClC(Cl)(Cl)Cl): 0.24
photoluminescence quantum yield (in ClC(Cl)Cl): 0.55
photoluminescence quantum yield (in ClCCl): 0.55
photoluminescence quantum yield (in c1ccccc1): 0.67

photoluminescence quantum yield (in ClCCl): 0.53
Compound: COCCOCCOCCOCC(COCCOCCOCCOC)Oc1cc(/C=C/c2ccc(C=C(C#N)C#N)cc2)c(OC(COCCOCCOCCOC)COCCOCCOCCOC)cc1/C=C/c1ccc(C=C(C#N)C#N)cc1

photoluminescence quantum yield (in ClC(Cl)Cl): 0.1
Compound: COc1ccc(C2=c3sc(-c4ccc(OC)cc4)cc3=[N+]3C2=Nc2c(-c4ccc(OC)cc4)c4sc(-c5ccc(OC)cc5)cc4n2[B-]3(F)F)cc1

photoluminescence quantum yield (in C1CCCCC1): 0.16
photoluminescence quantum yield (in CC#N): 0.4
photoluminescence quantum yield (in CCO): 0.52
photoluminescence quantum yield (in CCOC(C)=O): 0.5
photoluminescence quantum yield (in O): 0.51
Compound: Cc1oc(-c2ccccc2)nc1C(=O)O

photoluminescence quantum yield (in C1CCOC1): 0.05
Compound: CC(C)(C)c1cc2c3c(c1)-c1cccc4c1N(B3N1c3ccccc3Sc3cccc-2c31)c1ccccc1S4

Compound: CCC1=C(C)C2=C(c3c4ccccc4cc4ccccc34)c3c(C)c(CC)c(C)n3[B-](F)(F)[N+]2=C1C
photoluminescence quantum yield (in CC#N): 0.579
photoluminescence quantum yield (in CCCCCC): 0.871
photoluminescence quantum yield (in CCO): 0.778
photoluminescence quantum yield (in CN(C)C=O): 0.705
photoluminescence quantum yield (in Cc1ccccc1): 0.806
photoluminescence quantum yield (in ClCCl): 0.799

Compound: CC(C)(C(=O)c1ccc(N2c3ccccc3Oc3ccccc32)cc1)C(=O)c1ccc(N2c3ccccc3Oc3ccccc32)cc1
photoluminescence quantum yield [2]: 0.54

photoluminescence quantum yield (in ClCCl): 0.36
Compound: O=P1(c2ccccc2)c2cccc3ccc4ccc1n4c23 (stereo not drawn)

photoluminescence quantum yield (in C1CCOC1): 0.49
Compound: CCC1(CC)c2ccccc2-c2c1c1c(c3c2C(CC)(CC)c2cc(N(c4ccccc4)c4ccccc4)ccc2-3)C(CC)(CC)c2ccccc2-1

Compound: CCCCC1(CCCC)c2cc(C#Cc3ccc4ccc5cccc6ccc3c4c56)ccc2-c2ccc(N(c3ccccc3)c3ccccc3)cc21
photoluminescence quantum yield (in Cc1ccccc1): 0.72

photoluminescence quantum yield (in CCO): 0.501
photoluminescence quantum yield (in ClCCl): 0.732
photoluminescence quantum yield (in O): 0.088
Compound: CCOC(=O)c1ccccc1-c1c2ccc(=[N+](CC)CC)cc-2oc2c1oc1cc(N)ccc12

photoluminescence quantum yield (in O): 0.34
Compound: Cc1ccccc1C1=C2C=CC(=[N+](C)C)C=[C]2[Ge]([CH3])([CH3])[c]2cc(N(C)C)ccc21

photoluminescence quantum yield (in CCO): 0.61
photoluminescence quantum yield (in ClCCl): 0.78
Compound: c1cnc(-c2c3ccccc3c(-c3cncnc3)c3ccccc23)nc1

photoluminescence quantum yield (in ClCCl): 0.02
Compound: O=C1c2ccccc2C2=Nc3cccc4cccc(c34)N12

Compound: c1ccc2c(c1)c1ccccc1n2-c1ccc2cc(-c3ccc(-c4ccc(-c5cc6ccc(-n7c8ccccc8c8ccccc87)cc6o5)cc4)cc3)oc2c1
photoluminescence quantum yield (in Cc1ccccc1): 0.96
photoluminescence quantum yield [2]: 1

Compound: FC(F)(F)c1cc2n(n1)[B-](c1ccccc1)(c1ccccc1)[n+]1ccc3ccccc3c1-2
photoluminescence quantum yield (in C1CCCCC1): 0.999
photoluminescence quantum yield (in Cc1ccccc1): 0.712
photoluminescence quantum yield (in ClCCl): 0.778

photoluminescence quantum yield (in C1CCCCC1): 0.81
photoluminescence quantum yield (in CCOC(C)=O): 0.69
photoluminescence quantum yield (in CO): 0.48
Compound: Cc1ccccc1C1=C2C=c3c(oc4c3ccc3ccccc34)=[N+]2[B-](F)(F)n2c1cc1c3ccc4ccccc4c3oc12

photoluminescence quantum yield (in C1COCCO1): 0.17
Compound: CCCCN(CCCC)c1ccc(/C=C/c2ccc3nc(-c4ccccc4)c(/C=C/c4ccc(N(C)C)cc4)nc3c2)cc1

photoluminescence quantum yield (in C1CCOC1): 0.06
Compound: CCCCCCCCCCCCOc1cc(C(=O)Nc2ccc(-c3ccc4c(c3)C(=O)c3cc(-c5ccc(NC(=O)c6cc(OCCCCCCCCCCCC)c(OCCCCCCCCCCCC)c(OCCCCCCCCCCCC)c6)cc5)ccc3-4)cc2)cc(OCCCCCCCCCCCC)c1OCCCCCCCCCCCC

photoluminescence quantum yield (in C1COCCO1): 0.2
photoluminescence quantum yield (in CC#N): 0.15
photoluminescence quantum yield (in ClCCl): 0.21
Compound: CCCn1c(=O)c(/C=C/c2nc3ccc(C)cc3n(CCC)c2=O)nc2ccc(C)cc21

photoluminescence quantum yield (in CCO): 0.35
Compound: Cc1cc(=O)oc2ccc3ccc(-c4cn(Cc5ccccc5)nn4)cc3c12

photoluminescence quantum yield (in CC#N): 0.86
photoluminescence quantum yield (in ClCCl): 0.99
Compound: O=c1c2cc(F)ccc2nc2n1[B-](F)(F)[n+]1ccccc1-2

Compound: COc1ccc(/C=C2\OC(=O)c3cc(N)ccc32)cc1
photoluminescence quantum yield (in CC#N): 0.38
photoluminescence quantum yield (in CC(C)=O): 0.21
photoluminescence quantum yield (in CC(C)CO): 0.44
photoluminescence quantum yield (in CC(C)O): 0.4
photoluminescence quantum yield (in CCCO): 0.46
photoluminescence quantum yield (in CCO): 0.34
photoluminescence quantum yield (in CCOC(C)=O): 0.2
photoluminescence quantum yield (in CCOCC): 0.11
photoluminescence quantum yield (in CO): 0.29

Compound: CCCCN1C(=O)c2cc(Oc3ccc(C(C)(C)C)cc3)c3c4c(Oc5ccc(C(C)(C)C)cc5)cc5c(=O)[nH]/c(=C\c6ccccn6)c6cc(Oc7ccc(C(C)(C)C)cc7)c(c7c(Oc8ccc(C(C)(C)C)cc8)cc(c2c37)C1=O)c4c56
photoluminescence quantum yield (in C1CCOC1): 0.336
photoluminescence quantum yield (in Cc1ccccc1): 0.408
photoluminescence quantum yield (in ClCCl): 0.421

photoluminescence quantum yield (in CC#N): 0.38
photoluminescence quantum yield (in ClCCl): 0.385
Compound: COc1ccccc1-c1nc(-c2ccccc2)c2ccccn12

Compound: CCCCc1ccc(-n2c3c(c4c2c2c(n4-c4ccc(CCCC)cc4)-c4cc(F)ccc4NB2c2ccccc2)B(c2ccccc2)Nc2ccc(F)cc2-3)cc1
photoluminescence quantum yield (in Cc1ccccc1): 0.64

photoluminescence quantum yield (in CC#N): 0.3
photoluminescence quantum yield (in CO): 0.11
photoluminescence quantum yield (in O): 0.07
Compound: Nc1cccc2cn[nH]c12

Compound: Cc1cc2c(o1)=CC1=C(C(F)(F)F)c3cc4oc(C)cc4n3[B-](F)(F)[N+]=21
photoluminescence quantum yield (in C1CCOC1): 0.92
photoluminescence quantum yield (in CC#N): 0.84
photoluminescence quantum yield (in CCO): 0.87
photoluminescence quantum yield (in CO): 0.7
photoluminescence quantum yield (in Cc1ccccc1): 0.97
photoluminescence quantum yield (in ClC(Cl)Cl): 0.98

photoluminescence quantum yield (in ClC(Cl)Cl): 0.23
Compound: CCCCc1cc(-c2cccc(COC)c2)oc1-c1cccc(-c2cc(CCCC)c(-c3cccc(-c4oc(-c5cccc(-c6oc(-c7cccc(COC)c7)cc6CCCC)c5)cc4CCCC)c3)o2)c1

photoluminescence quantum yield (in C1COCCO1): 0
Compound: COC(=O)c1ccc(/C=C2\N=C(c3ccccc3)OC2=O)cc1

photoluminescence quantum yield (in C1CCCCC1): 0.006
Compound: COc1ccc2c(c1)c1cc(OC)ccc1n2-c1cc(Cl)c([C](c2c(Cl)cc(Cl)cc2Cl)c2c(Cl)cc(Cl)cc2Cl)c(Cl)c1

photoluminescence quantum yield (in C1CCCCC1): 0.86
Compound: CCC(C)(C)c1ccc(-c2ccc3c(c2)C(CCOC)(CCOC)c2cc4c(cc2-3)C(CCOC)(CCOC)c2cc(-c3ccc(C(C)(C)CC)cc3)ccc2-4)cc1

photoluminescence quantum yield (in CCCCC(CC)n1c2ccc(-n3c4ccccc4c4ccccc43)cc2c2cc(-n3c4ccccc4c4ccccc43)ccc21): 0.082
photoluminescence quantum yield (in c1cc(-n2c3ccccc3c3ccccc32)cc(-n2c3ccccc3c3ccccc32)c1): 0.116
Compound: O=S(=O)(c1cccc(N2c3ccccc3Sc3ccccc32)c1)c1cccc(N2c3ccccc3Sc3ccccc32)c1

photoluminescence quantum yield (in CC#N): 0.27
photoluminescence quantum yield (in CCCCCC): 0.35
Compound: C/C=C/c1ccc(OC)cc1

photoluminescence quantum yield (in ClCCl): 0.93
Compound: c1ccc(N(c2ccccc2)c2ccc(-c3ncnc4ccccc34)cc2)cc1

photoluminescence quantum yield (in ClC(Cl)Cl): 0.61
Compound: N#CC1=CC(C#Cc2ccccc2)=CC(C#N)=P1(c1ccccc1)c1ccccc1

photoluminescence quantum yield (in ClCCl): 0.9
Compound: O=[N+]([O-])c1ccc([N+]2=Cc3ccc4ccccc4c3O[B-]2(F)F)cc1

Compound: N#Cc1cc(C#N)c(-n2c3ccccc3c3cc(-c4cccc5c4c4ccccc4n5-c4cc(-n5c6ccccc6c6ccccc65)c(C#N)cc4C#N)ccc32)cc1-n1c2ccccc2c2ccccc21
photoluminescence quantum yield [1]: 0.66
